Source: paper PMC11037862 (ACS chemical neuroscience, 2023)

Target: S1PR1 (sphingosine-1-phosphate receptor 1) (Homo sapiens, UniProt P21453)
Assay: saturation autoradiography with the tritiated ligand on human brain sections

Sequence of S1PR1 (sphingosine-1-phosphate receptor 1) (P21453 whole entry): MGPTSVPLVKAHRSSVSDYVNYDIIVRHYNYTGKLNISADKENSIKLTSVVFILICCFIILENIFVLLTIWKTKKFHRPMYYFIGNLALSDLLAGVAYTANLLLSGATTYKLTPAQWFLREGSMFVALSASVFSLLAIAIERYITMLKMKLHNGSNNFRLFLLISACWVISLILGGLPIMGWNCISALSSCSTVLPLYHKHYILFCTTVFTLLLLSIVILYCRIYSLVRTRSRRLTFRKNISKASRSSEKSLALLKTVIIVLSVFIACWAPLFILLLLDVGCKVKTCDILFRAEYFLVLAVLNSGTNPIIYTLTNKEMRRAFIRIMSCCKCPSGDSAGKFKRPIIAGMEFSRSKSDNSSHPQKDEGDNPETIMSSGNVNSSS

[^3H]CS1P1 showed a Kd of 2.7 ± 0.2 nM.
